Test [1] addresses human, recombinant full-length HDAC1 (Homo sapiens (Human), UniProt Q13547). Briefly: HDAC inhibition assay, HDAC1. The settings on record: HDAC1 and HDAC6, not selective. In kind it is biochemical.
In test [2] the test system is B16 murine melanoma cells. Put plainly: B16 melanoma cell growth inhibition assay (MTS). In kind it is cell-based. On the procedure: The following day, media was changed to that containing various concentrations of HDACi or matched DMSO vehicle concentrations diluted in complete medium done in triplicate. […] Briefly, 20 μL of reagent were added per well and incubated at 37° C. for 3 hours.

The subject of test [3] is acetyl-α-tubulin in B16 melanoma cells. Put plainly: Tubulin acetylation Western blot assay. To be noted: 24 h, low nanomolar treatment. In kind it is cell-based, murine. The protocol: (§1) […]. B16 melanoma cells were plated at 10^5 cells/well in 12 well plates and allowed to adhere overnight. A 50 mM stock of compound was then added by serial dilutions in complete medium to the indicated concentrations. Cells were incubated for 24 h under humidified conditions (37° C., 5% CO2). Wells were then washed with cold PBS, and cells were lysed in a buffer containing 10 mM Tris-HCl pH 8.0, 10% SDS, […], 100 mM DTT, and 1× protease inhibitor (Roche). Cells were lysed for 30 min on ice and then sonicated for 8 min (8 cycles of 30 s on/30 s rest). Cells were then boiled for 10 min with 6× gel loading buffer and resolved on 4-15% gradient gels and subsequently transferred onto nitrocellulose membranes. Membranes were blocked with 5% milk in PBS-T and detection of specific antigens using antibodies against acetyl-H3 and H3 (Cell Signaling), and acetyl-α-tubulin and α-tubulin (Sigma). Bands were detected by scanning blots with LI-COR Odyssey imaging system using both 700 and 800 channels.
In general terms: In western blotting, separated proteins are transferred to a membrane and probed.

The subject of test [4] is acetyl-H3 in B16 melanoma cells. Put plainly: Histone acetylation Western blot assay. In kind it is cell-based, murine. The settings on record: 24 h. The protocol:
as §1

For test [5], the system named is antigen-specific T-cell responses. Briefly: In vivo antigen-specific T-cell responses to vaccination. Details: species or system mice. To be noted: in vivo treatment. From the text: Tubastatin A-treated macrophages are better activators of […] and restore the responsiveness of anergic T-cells in vitro. […] Mechanistically, Tubastatin-A disrupt […] pathway and tip the balance towards immunogenic rather than tolerogenic macrophages.

A further test has as its system STAT3 in APCs. Briefly: STAT3 phosphorylation and recruitment to IL-10 gene promotor in APCs. In kind it is cell-based. From the text: FIG. 26 is a flow chart depicting the experimental design of the in vitro antigen-presenting studies.
Human MCL cells display an enhanced expression of HDAC6. Disruption of HDAC6 in malignant B-cells inhibits their proliferation and is associated with induction of apoptosis. Pharmacologic or genetic disruption of HDAC6 in MCL cells augment their antigen-presenting capabilities leading to better T-cell activation and restoration of function of anergic Tcells in vitro. […] Disclosed herein is the rationale to use HDAC6 specific inhibitor(s) alone or in combination with STAT3 inhibitors in MCL.

Test [6] has as its system JAK2/STAT3 in B16 murine melanoma cells. Put plainly: JAK2/STAT3 phosphorylation in B16 melanoma in vivo.

Sequence of human, recombinant full-length HDAC1 (Q13547 whole entry): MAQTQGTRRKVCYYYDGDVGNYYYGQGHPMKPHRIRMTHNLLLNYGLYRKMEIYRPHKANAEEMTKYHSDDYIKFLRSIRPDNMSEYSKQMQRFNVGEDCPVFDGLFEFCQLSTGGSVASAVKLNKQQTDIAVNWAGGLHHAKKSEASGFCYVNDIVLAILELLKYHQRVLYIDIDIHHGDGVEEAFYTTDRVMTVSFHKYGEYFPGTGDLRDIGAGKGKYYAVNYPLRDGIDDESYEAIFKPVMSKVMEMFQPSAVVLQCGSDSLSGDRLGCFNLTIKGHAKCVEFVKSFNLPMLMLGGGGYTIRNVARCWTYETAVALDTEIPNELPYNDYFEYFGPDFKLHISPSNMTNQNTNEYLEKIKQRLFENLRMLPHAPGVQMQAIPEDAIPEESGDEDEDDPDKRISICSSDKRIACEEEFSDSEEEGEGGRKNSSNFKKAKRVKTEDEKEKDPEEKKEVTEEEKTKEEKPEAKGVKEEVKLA

`COc1ccccc1NC(=O)NCc1ccc(C(=O)NO)cc1` [Compound 1]: in test [1], the “HDAC inhibitory activity (in words)” value is listed as “submicromolar HDAC inhibitory activity”.
With `COc1ccccc1NC(=O)N(CCCO)Cc1ccc(C(=O)NO)cc1` [Compound 5b, N-hydroxy-4-((1-(3-hydroxypropyl)-3-(2-methoxyphenyl)ureido)methyl)-benzamide], in test [2], the “growth inhibition of B16 melanoma cell line (in words)” value is “performed very poorly in the cellular assay”.
`CCCCN(Cc1ccc(C(=O)NO)cc1)C(=O)Nc1ccccc1` [Compound 5g, 4-((1-butyl-3-phenylureido)methyl)-N-hydroxybenzamide]: the “acetyl α-tubulin levels” value in test [3] is “dose-dependant increase of acetyl α-tubulin levels”. The “histone H3 acetylation” value in test [4] (1 and 10 μM) is on record as “observable increase in histone H3 acetylation”; in test [4] (low nanomolar treatment) it was “without a concamanent elevation of histone H3 acetylation”.
On to `O=C(NO)c1ccc(CN(CCc2ccccc2)C(=O)Nc2ccccc2)cc1` [Compound 5h, N-hydroxy-4-((1-phenethyl-3-phenylureido)methyl)benzamide], for which the “growth inhibition of B16 melanoma cell line (in words)” value in test [2] is recorded as “capable of inhibiting the growth of B16 melanoma cell line”.
With `CN1CCc2c(c3ccccc3n2Cc2ccc(C(=O)NO)cc2)C1` [Tubastatin A], in test [5], the “antigen-specific T-cell responses to vaccination” value is “enhances antigen-specific T-cell responses to vaccination”. Also, the “STAT3 phosphorylation and recruitment to the IL-10 gene promotor” value in the test on STAT3 in APCs is “decreased STAT3 phosphorylation and recruitment”. In addition, the JAK2/STAT3 phosphorylation entry in test [6] is “inhibits JAK2/STAT3 phosphorylation”.

The record behind these values is US9956192B2, “Selective histone deactylase 6 inhibitors” (H. Lee Moffitt Cancer Center and Research Institute, Inc., priority 2012, dated 2018).
